{"source": "ChEMBL document CHEMBL1201862", "about": "“PubChem BioAssay data set” (2004)", "key": {"Cytochrome P450 3A4": {"biological_target": "Cytochrome P450 3A4 (Homo sapiens, UniProt P08684)", "sequence (P08684 whole entry)": "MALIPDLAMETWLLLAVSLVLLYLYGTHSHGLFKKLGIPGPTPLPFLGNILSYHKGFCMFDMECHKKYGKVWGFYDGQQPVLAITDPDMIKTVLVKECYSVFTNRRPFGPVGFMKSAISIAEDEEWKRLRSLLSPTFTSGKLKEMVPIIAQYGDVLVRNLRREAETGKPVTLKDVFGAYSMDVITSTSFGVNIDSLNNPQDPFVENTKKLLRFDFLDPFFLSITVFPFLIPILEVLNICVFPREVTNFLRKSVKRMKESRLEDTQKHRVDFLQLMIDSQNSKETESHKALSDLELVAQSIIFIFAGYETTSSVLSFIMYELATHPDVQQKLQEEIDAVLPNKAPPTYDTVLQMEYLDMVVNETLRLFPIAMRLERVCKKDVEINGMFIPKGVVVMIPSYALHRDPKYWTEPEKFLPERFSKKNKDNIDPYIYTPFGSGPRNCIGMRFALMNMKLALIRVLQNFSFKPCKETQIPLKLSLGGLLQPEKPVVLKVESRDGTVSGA", "conditions": "Potency"}, "[1]": {"assay": "control 3'UTR Renilla luciferase suppression, dose response, counter-screen for Shn3 inhibitor project, cell-based, Clone20-Shn3RL, cherry-picked (AID 624133)", "type": "functional"}, "[2]": {"biological_target": "T1, Microphthalmia-associated transcription factor (Homo sapiens, UniProt O75030)", "T1 sequence (O75030 whole entry)": "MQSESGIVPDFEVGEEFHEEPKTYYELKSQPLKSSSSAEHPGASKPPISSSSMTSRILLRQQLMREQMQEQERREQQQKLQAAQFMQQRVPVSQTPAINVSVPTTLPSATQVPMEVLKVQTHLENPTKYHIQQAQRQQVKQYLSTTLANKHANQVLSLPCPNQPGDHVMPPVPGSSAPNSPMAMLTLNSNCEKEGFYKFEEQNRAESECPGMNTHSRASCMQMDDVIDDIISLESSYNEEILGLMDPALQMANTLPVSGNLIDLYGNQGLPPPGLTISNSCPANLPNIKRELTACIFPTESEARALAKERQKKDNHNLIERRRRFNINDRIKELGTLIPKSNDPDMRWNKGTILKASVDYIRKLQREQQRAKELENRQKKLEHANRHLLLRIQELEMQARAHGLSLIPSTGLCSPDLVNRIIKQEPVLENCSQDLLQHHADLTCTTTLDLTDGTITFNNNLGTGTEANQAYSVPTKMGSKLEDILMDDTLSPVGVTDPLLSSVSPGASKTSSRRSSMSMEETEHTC", "assay": "TRPM1 promoter luciferase signal decrease, dose response, MITF inhibitor project, cell-based, SK-MEL-5, cherry-picked, set 3 (AID 493073)", "type": "functional"}, "cells [3]": {"assay": "cells", "type": "functional, cell-based"}, "[4]": {"assay": "HepG2 cell cytotoxicity, dose response, cytotoxicity control for Shn3 inhibitor project, CellTiter-Glo, cherry-picked (AID 624134)", "type": "functional, cell-based"}, "cells [5]": {"assay": "cells", "type": "functional, cell-based", "remark": "listed apart in the source"}, "[6]": {"assay": "Shn3 3'UTR reporter inhibitors, dose response, cell-based, Clone20 osteoblasts, firefly luciferase, cherry-picked (AID 624132)", "type": "functional"}, "INS1": {"test_system": "INS1", "assay": "beta cell apoptosis inhibitors, cytokine rescue, dose response, luminescence, retest (AID 449756);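 further: cell death triggered by IL-1 beta plus TNF-alpha plus IFN-gamma mixture; protective hits raise ATP signal compared with cytokine alone wells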", "type": "functional, cell-based", "conditions": "Rattus norvegicus"}, "Genome polyprotein": {"biological_target": "Genome polyprotein (dengue virus type 2, UniProt P29990)", "sequence (P29990 2492-3391 limits assumed)": "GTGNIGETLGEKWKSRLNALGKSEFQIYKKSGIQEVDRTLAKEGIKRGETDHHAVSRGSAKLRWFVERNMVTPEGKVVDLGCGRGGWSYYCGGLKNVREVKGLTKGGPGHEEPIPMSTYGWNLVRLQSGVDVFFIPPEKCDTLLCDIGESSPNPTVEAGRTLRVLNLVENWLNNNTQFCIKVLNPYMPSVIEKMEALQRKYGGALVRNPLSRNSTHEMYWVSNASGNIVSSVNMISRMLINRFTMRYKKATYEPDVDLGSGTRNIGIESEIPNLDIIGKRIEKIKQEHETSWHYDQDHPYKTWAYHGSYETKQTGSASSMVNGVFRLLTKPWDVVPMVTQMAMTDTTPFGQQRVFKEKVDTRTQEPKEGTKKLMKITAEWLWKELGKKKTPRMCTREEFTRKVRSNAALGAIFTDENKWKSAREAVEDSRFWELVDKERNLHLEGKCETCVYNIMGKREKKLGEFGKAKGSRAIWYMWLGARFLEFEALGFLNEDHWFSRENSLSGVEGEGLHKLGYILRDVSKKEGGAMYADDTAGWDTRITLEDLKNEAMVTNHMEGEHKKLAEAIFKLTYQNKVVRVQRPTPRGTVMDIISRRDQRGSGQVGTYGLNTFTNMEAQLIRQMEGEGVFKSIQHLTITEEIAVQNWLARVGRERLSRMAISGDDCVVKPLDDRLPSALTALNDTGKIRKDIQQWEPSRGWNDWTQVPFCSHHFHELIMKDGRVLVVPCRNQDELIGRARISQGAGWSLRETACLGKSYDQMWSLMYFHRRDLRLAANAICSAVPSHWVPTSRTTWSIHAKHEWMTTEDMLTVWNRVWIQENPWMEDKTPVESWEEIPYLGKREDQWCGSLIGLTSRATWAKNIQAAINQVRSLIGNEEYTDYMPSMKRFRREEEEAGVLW", "assay": "Dengue-2 NS5 methyltransferase inhibitors, primary screen, biochemical, confirmation dose response (AID 588689)", "type": "functional"}, "[7]": {"biological_target": "Eukaryotic translation initiation factor 4E (Mus musculus, UniProt P63073)", "sequence (P63073 whole entry)": "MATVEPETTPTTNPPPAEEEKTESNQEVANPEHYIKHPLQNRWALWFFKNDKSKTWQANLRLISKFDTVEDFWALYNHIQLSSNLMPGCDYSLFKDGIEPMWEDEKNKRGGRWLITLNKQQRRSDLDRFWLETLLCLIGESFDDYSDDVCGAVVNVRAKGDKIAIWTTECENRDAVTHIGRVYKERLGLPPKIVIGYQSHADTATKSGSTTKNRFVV", "assay": "eIF4E–eIF4G protein interaction inhibitors, dose response, biochemical, TR-FRET (AID 855);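 further: potency for disrupting eIF4E binding to eIF4GI seen as loss of FRET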", "type": "functional"}, "Cytochrome P450 1A2": {"biological_target": "T2, Cytochrome P450 1A2 (Homo sapiens, UniProt P05177)", "T2 sequence (P05177 whole entry)": "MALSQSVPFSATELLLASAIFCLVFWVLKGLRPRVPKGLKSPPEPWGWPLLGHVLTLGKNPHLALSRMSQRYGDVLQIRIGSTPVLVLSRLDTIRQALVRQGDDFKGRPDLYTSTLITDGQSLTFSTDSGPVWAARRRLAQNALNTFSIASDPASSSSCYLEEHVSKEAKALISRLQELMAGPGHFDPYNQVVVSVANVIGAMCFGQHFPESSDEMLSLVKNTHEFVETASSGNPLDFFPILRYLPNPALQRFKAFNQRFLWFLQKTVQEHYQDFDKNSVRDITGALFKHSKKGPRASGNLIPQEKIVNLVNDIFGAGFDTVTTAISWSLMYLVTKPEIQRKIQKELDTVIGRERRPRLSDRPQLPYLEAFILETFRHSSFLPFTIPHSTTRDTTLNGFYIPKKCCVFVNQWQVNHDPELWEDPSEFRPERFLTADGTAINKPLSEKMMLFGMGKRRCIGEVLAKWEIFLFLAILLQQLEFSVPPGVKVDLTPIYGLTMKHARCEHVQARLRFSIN"}, "Paired box protein Pax-8": {"biological_target": "Paired box protein Pax-8 (Homo sapiens, UniProt Q06710)", "sequence (Q06710 whole entry)": "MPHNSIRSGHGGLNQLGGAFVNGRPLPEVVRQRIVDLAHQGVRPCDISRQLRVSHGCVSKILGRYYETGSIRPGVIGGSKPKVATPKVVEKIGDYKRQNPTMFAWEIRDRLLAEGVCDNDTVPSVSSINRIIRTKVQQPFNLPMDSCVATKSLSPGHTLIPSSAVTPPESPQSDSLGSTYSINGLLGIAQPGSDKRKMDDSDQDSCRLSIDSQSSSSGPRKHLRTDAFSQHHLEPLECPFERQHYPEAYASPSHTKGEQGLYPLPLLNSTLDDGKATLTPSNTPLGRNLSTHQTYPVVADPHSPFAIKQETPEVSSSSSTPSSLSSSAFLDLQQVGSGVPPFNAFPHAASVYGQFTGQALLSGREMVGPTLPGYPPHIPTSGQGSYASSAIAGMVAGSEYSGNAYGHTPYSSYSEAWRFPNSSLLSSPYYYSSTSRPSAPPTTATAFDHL", "assay": "inhibitors of PAX8-driven TPO luciferase reporter, dose response, RMG-I cells, cherry-pick (AID 687027);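 further: luciferase reporter driven by Pax8 target thyroperoxidase promoter measured by SteadyGlo luminescence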", "type": "functional, cell-based"}, "[8]": {"assay": "inhibitors of clade B AD8 Env fusion, dose response, cell-based, cherry-pick (AID 652062);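 further: potency is for inhibitors of fusion seen as a drop in luminescence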", "type": "functional"}, "[9]": {"assay": "inhibitors of HIV Env-driven cell fusion, dose response, cherry-pick (AID 652057)", "type": "functional, cell-based"}, "[10]": {"assay": "THP-1 cell cytotoxicity, dose response, cytotoxicity control for non-replicating M. tuberculosis project (AID 489025)", "type": "functional"}, "[11]": {"assay": "Vero E6 cell cytotoxicity, dose response, cytotoxicity control for non-replicating M. tuberculosis project, secondary assay (AID 492998)", "type": "functional, VeroE6", "conditions": "Vero C1008"}, "cells [12]": {"assay": "cells", "type": "functional"}, "[13]": {"biological_target": "T3, Sentrin-specific protease 8 (Homo sapiens, UniProt Q96LD8)", "T3 sequence (Q96LD8 whole entry)": "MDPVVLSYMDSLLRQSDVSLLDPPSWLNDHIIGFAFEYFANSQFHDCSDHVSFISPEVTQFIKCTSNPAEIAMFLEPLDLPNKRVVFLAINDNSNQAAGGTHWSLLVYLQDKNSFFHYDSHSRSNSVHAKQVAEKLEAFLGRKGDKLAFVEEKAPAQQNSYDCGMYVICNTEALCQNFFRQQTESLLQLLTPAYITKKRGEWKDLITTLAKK", "type": "functional"}, "[14]": {"biological_target": "Heat shock protein HSP 90-alpha (Homo sapiens, UniProt P07900)", "type": "functional, organism-based"}, "[15]": {"biological_target": "T3, Sentrin-specific protease 8", "type": "functional", "remark": "listed apart in the source"}}, "note": "Active and inactive are the calls of the source.", "data": [{"smiles": "CCCCNc1nc(C)nc2c1nc(-c1ccccc1)n2CCN(C)C", "values": [{"measurement": "AC50", "setting": "Cytochrome P450 3A4", "result": "15.8 µM (inconclusive)"}]}, {"smiles": "COc1ccc(C(NC(C)=O)c2ccc3cccnc3c2O)c(OC)c1", "note": "(configuration not stated)", "values": [{"measurement": "AC50", "setting": "[1]", "result": "2.16 µM (active)"}, {"measurement": "AC50", "setting": "[2]", "result": "5.15 µM (active)"}, {"measurement": "EC50", "setting": "cells [3]", "result": "> 350 µM (not active)"}, {"measurement": "AC50", "setting": "[4]", "result": "2.68 µM (active)"}, {"measurement": "EC50", "setting": "cells [5]", "result": "8.62 µM (active)"}, {"measurement": "AC50", "setting": "[6]", "result": "1.74 µM (active)"}, {"measurement": "AC50", "setting": "INS1", "result": "1.09 µM (active)"}]}, {"smiles": "Oc1c(CN2CCOCC2)cc(CN2CCOCC2)c(O)c1O", "values": [{"measurement": "IC50", "setting": "Genome polyprotein", "result": "15.2 µM (active)"}]}, {"smiles": "O=C(O)c1ccccc1C(=O)Nc1nccs1", "values": [{"measurement": "IC50", "setting": "[7]", "result": "> 64 µM (inactive)"}, {"measurement": "AC50", "setting": "Cytochrome P450 1A2", "result": "15.8 µM (inconclusive)"}]}, {"smiles": "Cc1nn(-c2ccccc2)c(C)c1C(=O)OC(C)C(=O)NC1CCCCC1", "note": "(configuration not stated)", "values": [{"measurement": "AC50", "setting": "[1]", "result": "25.8 µM (active)"}, {"measurement": "AC50", "setting": "[4]", "result": "41.8 µM (active)"}, {"measurement": "AC50", "setting": "[6]", "result": "8.19 µM (active)"}]}, {"smiles": "Nc1nc(N)c2cc(S(=O)(=O)c3cccc(C(F)(F)F)c3)ccc2n1", "values": [{"measurement": "AC50", "setting": "[1]", "result": "16.9 µM (active)"}, {"measurement": "AC50", "setting": "[4]", "result": "5.52 µM (active)"}, {"measurement": "AC50", "setting": "[6]", "result": "5.22 µM (active)"}]}, {"smiles": "C[C@@H]1CN([C@@H](C)CO)C(=O)c2cc(NC(=O)c3ccccc3)ccc2O[C@@H](C)CCCCO[C@H]1CN(C)Cc1ccc(C(F)(F)F)cc1", "values": [{"measurement": "AC50", "setting": "Paired box protein Pax-8", "result": "10.1 µM (active)"}]}, {"smiles": "C[C@@H]1CN([C@@H](C)CO)C(=O)Cc2cc(N(C)C)ccc2O[C@H]1CN(C)Cc1ccc(Oc2ccccc2)cc1", "values": [{"measurement": "AC50", "setting": "Paired box protein Pax-8", "result": "11 µM (active)"}]}, {"smiles": "COc1ccc(NC(=O)Nc2ccc3c(c2)C(=O)N([C@H](C)CO)C[C@H](C)[C@H](CN(C)S(=O)(=O)c2ccc(C)cc2)O3)cc1", "values": [{"measurement": "AC50", "setting": "[8]", "result": "11.2 µM (active)"}, {"measurement": "AC50", "setting": "[9]", "result": "3.61 µM (active)"}]}, {"smiles": "COc1cc(C(=O)OC2CC[C@]3(C)C4CCC5[C@]6(O)CC(O)[C@]7(O)C(CN8CC(C)CCC8[C@]7(C)O)[C@]6(O)C[C@@]53O[C@]24O)cc(OC)c1OC", "note": "(some centres not stated)", "values": [{"measurement": "AC50", "setting": "Cytochrome P450 3A4", "result": "20 µM (inconclusive)"}]}, {"smiles": "Cc1ccc(-c2nn(-c3ccccc3)cc2/C=N/NC(=O)c2ccncc2)o1", "values": [{"measurement": "CC50", "setting": "[10]", "result": "32.8 µM (active)"}, {"measurement": "CC50", "setting": "[11]", "result": "> 20 µM (active)"}, {"measurement": "IC50", "setting": "cells [12]", "result": "0.22 µM (active)"}]}, {"smiles": "O=[N+]([O-])c1ccc(/C=N/c2ccc(Cl)c([N+](=O)[O-])c2)s1", "values": [{"measurement": "IC50", "setting": "[13]", "result": "2.35 µM (active)"}, {"measurement": "AC50", "setting": "[14]", "result": "2.99 µM (active)"}, {"measurement": "IC50", "setting": "[15]", "result": "3.07 µM (active)"}]}, {"smiles": "O=C(/C=C/c1ccco1)c1ccccc1O", "values": [{"measurement": "IC50", "setting": "[7]", "result": "50 µM (inactive)"}]}, {"smiles": "O=C(/C=C/c1ccccc1)c1ccc(O)cc1O", "note": "[2',4'-DIHYDROXYCHALCONE]", "values": [{"measurement": "AC50", "setting": "Cytochrome P450 3A4", "result": "1.58 µM (inconclusive)"}]}, {"smiles": "O=c1cc(-c2ccccc2)oc2c(O)c(O)ccc12", "note": "[7,8-DIHYDROXYFLAVONE]", "values": [{"measurement": "AC50", "setting": "Cytochrome P450 3A4", "result": "39.8 µM (inconclusive)"}]}, {"smiles": "O=C1C=C(O)C(=O)c2ccccc21", "note": "[LAWSONE]", "values": [{"measurement": "AC50", "setting": "Cytochrome P450 3A4", "result": "25.1 µM (inconclusive)"}]}]}
